Assay results taken from US20260285853A1, “COMPOUNDS AND METHODS FOR MODULATING SPLICING” (REMIX THERAPEUTICS INC., priority 2023, published 2026).

How the values were obtained:
Type in all cases: cell-based
HTT mRNA [1] = assay: Splicing RT-qPCR assay, canonical (CJ) and alternative (AJ) junction mRNA, K562 cells; conditions: Homo sapiens, K562.3 cells, 24 hours; for AC50: read-out: HTT AJ (AC50, increase in AJ mRNA); for IC50: read-out: HTT CJ (IC50, decrease in CJ mRNA)
Summary of the method: (§1)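 Plate K562 cells, add compound (top 10 uM final, DMSO ≤0.25%) and incubate 24 h. Lyse, run one-step RT-qPCR for CJ and AJ, normalize to GAPDH or GUSB, then to DMSO, and express as % response.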

MYB mRNA [2] = assay: as above; conditions: Homo sapiens, K562.3 cells, 24 hours; for AC50: read-out: MYB AJ (AC50, increase in AJ mRNA); for IC50: read-out: MYB CJ (IC50, decrease in CJ mRNA)
Summary of the method: as §1

HTT mRNA [3] = assay: Splicing RT-qPCR assay (THP), Table 2A; conditions: Table 2A (THP); for AC50: AJ mRNA increase, read-out: HTT AJ (increase in alternative junction mRNA, AC50); for IC50: CJ mRNA decrease, read-out: HTT CJ (decrease in canonical junction mRNA, IC50)
MYB mRNA [4] = assay: Splicing RT-qPCR assay (THP), Table 2A; conditions: Table 2A (THP); for AC50: AJ mRNA increase, read-out: MYB AJ (increase in alternative junction mRNA, AC50); for IC50: CJ mRNA decrease, read-out: MYB CJ (decrease in canonical junction mRNA, IC50)
[5] = test system: SH-SY5Y (human neuroblastoma) cells; assay: Cell viability, Cell Titer Glo 2.0 assay; conditions: read-out: Viability SHSY5Y.3 GI50
Summary of the method: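 Following a 72 h incubation (37 °C, 5% CO2, 0.1% DMSO final), compound toxicity toward SH-SY5Y cells was quantified by CellTiter-Glo 2.0.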

Row | SMILES | IC50 (HTT mRNA [1]) [µM] | IC50 (MYB mRNA [2]) [µM] | IC50 (HTT mRNA [3]) [µM] | IC50 (MYB mRNA [4]) [µM] | GI50 [5] [µM] | AC50 (HTT mRNA [1]) [µM] | AC50 (MYB mRNA [2]) [µM] | AC50 (HTT mRNA [3]) [µM] | AC50 (MYB mRNA [4]) [µM]
1 | Cc1cn2cc(NC(=O)c3ccc(N4C[C@H](C)N[C@@H](C)C4)c4[nH]nnc34)cc(F)c2n1 [Compound 242, 7-[(3S,5S)-3,5-dimethylpiperazin-1-yl]-N-(8-fluoro-2-methyl-imidazo[1,2-a]pyridin-6-yl)-1H-benzotriazole-4-carboxamide] | > 10 | > 10 | > 10 | > 10 | > 10 | > 10 | > 10 | > 10 | > 10
2 | CN[C@H]1CCN(c2ccc(C(=O)Nc3cc(F)c4nc(C)cn4c3)c3nn(C)nc23)C1 [Compound 163, (S)-N-(8-fluoro-2-methylimidazo-[1,2-a]pyridin-6-yl)-2-methyl-7-(3-(methylamino)pyrrolidin-1-yl)-2H-benzo[d]-[1,2,3]triazole-4-carboxamide] | 0.1 to 1 | 0.1 to 1 | 0.1 to 1 | 1 to 10 | 0.1 to 1 | 0.1 to 1 | 0.1 to 1 | 1 to 10 | 0.1 to 1
3 | Cc1cn2cc(NC(=O)c3c(O)cc(N4CC[C@@H](NC5CC5)C4)c4cn(C)nc34)cc(F)c2n1 [Compound 288, 4-[(3R)-3-(cyclopropylamino)-pyr-rolidin-1-yl]-N-(8-fluoro-2-methyl-imidazo[1,2-a]pyridin-6-yl)-6-hydroxy-2-methyl-indazole-7-carboxamide] | > 10 | < 0.1 | > 10 | < 0.1 | 0.1 to 1 | > 10 | < 0.1 | > 10 | < 0.1
4 | Cn1cc2cc(NC(=O)c3c(O)cc(N4CC[C@@H](NC5CC5)C4)c4cn(C)nc34)cc(F)c2n1 [Compound 291, 4-[(3R)-3-(cyclopropylamino)pyrrolidin-1-yl]-N-(7-fluoro-2-methyl-indazol-5-yl)-6-hydroxy-2-methyl-indazole-7-carboxamide] | 1 to 10 | < 0.1 | > 10 | < 0.1 | 0.1 to 1 | 1 to 10 | < 0.1 | 1 to 10 | < 0.1
5 | Cc1cn2cc(NC(=O)c3ccc(N4C[C@@H](C)N[C@@H](C)C4)c4[nH]c(C)nc34)cc(F)c2n1 [Compound 225, 7-[(3R,5S)-3,5-dimethylpiperazin-1-yl]-N-(8-fluoro-2-methylimidazo[1,2-a]pyridin-6-yl)-2-methyl-1H-1,3-benzodiazole-4-carboxamide] | 1 to 10 | 1 to 10 | 1 to 10 | 0.1 to 1 | 1 to 10 | 1 to 10 | 1 to 10 | > 10 | 1 to 10
6 | Cc1cn2cc(NC(=O)c3ccc(N4C[C@@H](C)N[C@@H](C)C4)c4nnn(C)c34)cc(F)c2n1 [Compound 261, 7-[(3R,5S)-3,5-dimethylpiperazin-1-yl]-N-(8-fluoro-2-methyl-imidazo[1,2-a]pyridin-6-yl)-3-methyl-benzotriazole-4-carboxamide] | > 10 | > 10 | > 10 | > 10 | > 10 | > 10 | > 10 | > 10 | > 10
7 | CNC1(C)CCN(c2cc(F)c(C(=O)Nc3cn4cc(C)nc4c(F)c3OC)c3nn(C)cc23)CC1 [Compound 180, 6-fluoro-N-(8-fluoro-7-methoxy-2-methyl-imidazo[1,2-a]pyridin-6-yl)-2-methyl-4-[4-methyl-4-(methylamino)-1-piperidyl]indazole-7-carboxamide] | < 0.1 | < 0.1 | < 0.1 | < 0.1 | < 0.1 | < 0.1 | < 0.1 | < 0.1 | < 0.1
8 | Cc1cn2cc(NC(=O)c3c(F)cc(N4CC[C@H](NCC56CC(CO5)C6)C4)c4cn(C)nc34)cc(F)c2n1 [Compound 157, 6-fluoro-N-(8-fluoro-2-methyl-imidazo[1,2-a]pyridin-6-yl)-2-methyl-4-[(3S)-3-(2-oxabicyclo[2.1.1]hexan-1-ylmethylamino)pyrrolidin-1-yl]indazole-7-carboxamide] | > 10 | 0.1 to 1 | > 10 | < 0.1 | 1 to 10 | > 10 | < 0.1 | > 10 | < 0.1
9 | Cc1cn2cc(NC(=O)c3ccc(N4CCC(NC5CC5)CC4)c4cc(C)oc34)cc(F)c2n1 [Compound 185, 4-[4-(cyclopropyl-amino)-1-piperidyl]-N-(8-fluoro-2-methyl-imidazo[1,2-a]pyridin-6-yl)-2-methyl-benzofuran-7-carboxamide] | 1 to 10 | 0.1 to 1 | 1 to 10 | 0.1 to 1 | 0.1 to 1 | 1 to 10 | 0.1 to 1 | 1 to 10 | < 0.1

The next lines start with results.

Row | IC50 (HTT mRNA [1]) [µM] | IC50 (MYB mRNA [2]) [µM] | IC50 (HTT mRNA [3]) [µM] | IC50 (MYB mRNA [4]) [µM] | GI50 [5] [µM] | SMILES | AC50 (HTT mRNA [1]) [µM] | AC50 (MYB mRNA [2]) [µM] | AC50 (HTT mRNA [3]) [µM] | AC50 (MYB mRNA [4]) [µM]
10 | > 10 | > 10 | > 10 | > 10 | > 10 | CCNC1CCN(c2ccc(C(=O)Nc3cc4cn(C)nc4cc3O)c3[nH]ccc23)CC1 [Compound 190, 4-[4-(ethylamino)-1-piperidyl]-N-(6-hydroxy-2-methyl-indazol-5-yl)-1H-indole-7-carboxamide] | > 10 | > 10 | > 10 | > 10
11 | > 10 | 0.1 to 1 | 1 to 10 | 0.1 to 1 | 1 to 10 | CCNC1CCN(c2ccc(C(=O)Nc3cc(F)c4nc(CO)cn4c3)c3nn(C)cc23)CC1 [Compound 193, 4-[4-(ethylamino)-1-piperidyl]-N-[8-fluoro-2-(hydroxymethyl)imidazo[1,2-a]pyridin-6-yl]-2-methyl-indazole-7-carboxamide] | > 10 | 1 to 10 | 1 to 10 | 0.1 to 1
12 | 1 to 10 | 0.1 to 1 | 1 to 10 | 0.1 to 1 | 1 to 10 | CO[C@H]1C[C@H](N[C@H]2CCN(c3ccc(C(=O)Nc4cc(F)c5nc(C)cn5c4)c4nn(C)cc34)C2)C1 [Compound 275, N-(8-fluoro-2-methylimidazo[1,2-a]pyridin-6-yl)-4-((S)-3-(((1r,3S)-3-methoxycyclobutyl)amino)pyrrolidin-1-yl)-2-methyl-2H-indazole-7-carboxamide] | 1 to 10 | 0.1 to 1 | 1 to 10 | 0.1 to 1
13 | > 10 | 1 to 10 | > 10 | 1 to 10 | > 10 | CN[C@H]1CCN(c2ccc(C(=O)Nc3cc(F)c4nc(C)cn4c3)c3nn(C)cc23)[C@H]1C (single isomer, unassigned) [Compound 152] | > 10 | 1 to 10 | > 10 | > 10
14 | 1 to 10 | 1 to 10 | 1 to 10 | 1 to 10 | 1 to 10 | CCNC1CCN(c2ccc(C(=O)Nc3cc(F)c4nc(CC)cn4c3)c3nn(C)cc23)CC1 [Compound 201, 4-[4-(ethylamino)-1-piperidyl]-N-(2-ethyl-8-fluoro-imidazo[1,2-a]pyridin-6-yl)-2-methyl-indazole-7-carboxamide] | 1 to 10 | 1 to 10 | 1 to 10 | 1 to 10
15 | > 10 | > 10 | > 10 | > 10 | 0.1 to 1 | Cc1nc2c(F)cc(NC(=O)c3ccc(N4CCC(NC5CC5)CC4)c4cn(C)nc34)cn2c1C [Compound 189, 4-[4-(cyclopropylamino)-1-piperidyl]-N-(8-fluoro-2,3-dimethyl-imidazo[1,2-a]pyridin-6-yl)-2-methyl-indazole-7-carboxamide] | > 10 | > 10 | 0.1 to 1 | > 10
16 | 0.1 to 1 | < 0.1 | 0.1 to 1 | < 0.1 | 0.1 to 1 | CCNC1CCN(c2ccc(C(=O)Nc3cn4cc(C)nc4c(OC)n3)c3nn(C)cc23)CC1 [Compound 206, 4-[4-(ethylamino)-1-piperidyl]-N-(8-methoxy-2-methyl-imidazo[1,2-a]pyrazin-6-yl)-2-methyl-indazole-7-carboxamide] | 0.1 to 1 | < 0.1 | 0.1 to 1 | < 0.1
17 | 0.1 to 1 | 0.1 to 1 | 1 to 10 | 0.1 to 1 | 0.1 to 1 | CCNC1CCN(c2ccc(C(=O)Nc3cn4cc(C)nc(C)c4n3)c3nn(C)cc23)CC1 [Compound 181, N-(6,8-dimethylimidazo [1,2-a]pyrazin-2-yl)-4-[4-(ethylamino)-1-piperidyl]-2-methyl-indazole-7-carboxamide] | 0.1 to 1 | 0.1 to 1 | 1 to 10 | 0.1 to 1
